According to patent publication US7135337B2, “Insect expression vectors” (priority 1997, dated 2006):

What was measured:
Kc1 cell line = tested on: Kc1 cell line
Experimental: (§1) The dipteran (D. melanogaster) cell lines Kc1 and SL2, and the lepidopteran cell lines Sf9 (S. frugiperda), Ld652Y (L. dispar) and Cf1 (Choristoneura fumeferana) were tested for sensitivity to Zeocin in order to establish whether Zeocin was toxic in standard culture conditions to cell lines from these disparate insect orders. Zeocin is thought to exert its toxic effects by binding to DNA to induce double strand breaks. Such strand cleavage is thought to inhibit growth by disruption of DNA replication, which in turn interferes with subsequent cell division. Accordingly, cells already committed to division would not be expected to be affected by Zeocin until the next round of DNA replication; it would therefore be expected that cells treated with Zeocin may divide once, but will be unable to undergo further mitotic divisions since their DNA will not be intact.
(§2) In accordance with the current understanding of Zeocin's mechanism of action, the minimal inhibitory concentration of Zeocin is described herein as the amount of antibiotic required to limit the culture to one doubling. Growth curves for the determination of inhibitory concentrations of Zeocin in the Kc1, SL2 and Sf9 cell lines (FIG. 4a) were performed in rotating 1.5 ml microcentrifuge tubes containing 1 ml of TC-100 complete medium (pH=6.2) with 10% fetal bovine serum (Life Technologies, Gaithersburg, Md., U.S.A.), 0.5–1.0×10^6 cells and varying concentrations of Zeocin (obtained from Invitrogen, San Diego, Calif.) at 27° C. Samples were removed daily, stained with 0.4% trypan blue and the number of viable cells determined in quadruplicate using a hemocytometer. The minimal inhibitory Zeocin concentrations affecting Ld652Y and Cf1 cell lines were determined by seeding approximately 5,000 cells in a total volume of 200 μl TC-100 complete medium +10% fetal bovine serum+Zeocin into wells of 96 well microtitre plates.

Cf1 cell line = conditions: TC-100 + 10% FBS
Experimental: as §1, §2

Ld652Y cell line = conditions: Zeocin 10 μg/ml
Experimental: as §1, §2

Sf9 cell line = conditions: TC-100 + 10% FBS, 27° C.
Experimental: as §1, §2

Experimental for SL2 cell line: The dipteran (D. melanogaster) cell lines Kc1 and SL2, and the lepidopteran cell lines Sf9 (S. frugiperda), Ld652Y (L. dispar) and Cf1 (Choristoneura fumeferana) were tested for sensitivity to Zeocin in order to establish whether Zeocin was toxic in standard culture conditions to cell lines from these disparate insect orders. […] Accordingly, cells already committed to division would not be expected to be affected by Zeocin until the next round of DNA replication; it would therefore be expected that cells treated with Zeocin may divide once, but will be unable to undergo further mitotic divisions since their DNA will not be intact.
In accordance with the current understanding of Zeocin's mechanism of action, the minimal inhibitory concentration of Zeocin is described herein as the amount of antibiotic required to limit the culture to one doubling. […] Samples were removed daily, stained with 0.4% trypan blue and the number of viable cells determined in quadruplicate using a hemocytometer.

Cc1c(N)nc([C@H](CC(N)=O)NC[C@H](N)C(N)=O)nc1C(=O)N[C@H](C(=O)N[C@H](C)[C@@H](O)[C@H](C)C(=O)N[C@H](C(=O)NCCC1=N[C@@H](c2nc(C(=O)NCCCCN=C(N)N)cs2)CS1)[C@@H](C)O)[C@@H](O[C@@H]1O[C@@H](CO)[C@@H](O)[C@H](O)[C@@H]1O[C@H]1O[C@H](CO)[C@@H](O)[C@H](OC(N)=O)[C@@H]1O)c1cnc[nH]1 [Zeocin]
Zeocin concentration found to inhibit growth (Hi5 cell line): 800 µg/mL | Zeocin concentration that inhibited more than one round of cell division (SL2 cell line; TC-100 + 10% FBS, 27° C.): > 75 mg/mL | effect on growth rate (SL2 cell line; Zeocin 10 μg/ml): dramatic reductions in growth rates | Zeocin concentration that inhibited more than one round of cell division (Kc1 cell line; TC-100 + 10% FBS, 27° C.): greater than 50 μg/ml | effect on growth rate (Kc1 cell line; Zeocin 10 μg/ml): dramatic reductions in growth rates | Zeocin concentration required to completely inhibit further cell division (Cf1 cell line): at least 250 μg/ml | effect on growth rate (Ld652Y cell line): dramatic reductions in growth rates | Zeocin concentration required to completely inhibit further cell division (Sf9 cell line): at least 250 μg/ml | Zeocin concentration found to inhibit growth (C6/36 cell line): 250 µg/mL
